Experiment [1] addresses T1, Nicotinamide N-methyltransferase (Homo sapiens, UniProt P40261).
T1 sequence (P40261 whole entry): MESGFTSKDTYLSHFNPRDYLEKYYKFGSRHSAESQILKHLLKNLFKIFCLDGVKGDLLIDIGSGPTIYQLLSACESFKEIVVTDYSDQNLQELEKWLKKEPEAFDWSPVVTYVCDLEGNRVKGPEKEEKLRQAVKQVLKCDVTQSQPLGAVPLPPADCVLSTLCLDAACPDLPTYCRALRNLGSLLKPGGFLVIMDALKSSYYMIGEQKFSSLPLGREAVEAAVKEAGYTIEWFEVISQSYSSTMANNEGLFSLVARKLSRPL
The experiment in a line: biochemical.

The target of experiment [2] is Protein arginine N-methyltransferase 1 (Rattus norvegicus, UniProt Q63009). The experiment in a line: Inhibition of recombinant rat His-tagged PRMT1 expressed in Escherichia coli BL21(DE3) cells using H4-21 peptide as susbtrate preincubated for 10 mins in presence of AdoMet followed by substrate addition by fluorescence based SAHH enzyme coupled assay.
Experiment [3] deals with T2, N-terminal Xaa-Pro-Lys N-methyltransferase 1 (Homo sapiens, UniProt Q9BV86).
T2 sequence (Q9BV86 whole entry): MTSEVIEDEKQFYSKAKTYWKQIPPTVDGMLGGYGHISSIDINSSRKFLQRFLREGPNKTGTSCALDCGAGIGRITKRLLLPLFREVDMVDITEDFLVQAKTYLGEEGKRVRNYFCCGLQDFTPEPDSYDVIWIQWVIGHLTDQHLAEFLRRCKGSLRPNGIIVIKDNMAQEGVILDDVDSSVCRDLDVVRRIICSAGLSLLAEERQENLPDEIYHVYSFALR
The experiment in a line: Inhibition of NTMT1 (unknown origin) using GPKRIA peptide as substrate preincubated for 10 mins in presence of AdoMet followed by susbtrate addition by fluorescence based SAHH enzyme coupled assay.

In experiment [4] the target is Indolethylamine N-methyltransferase (Homo sapiens, UniProt O95050). In words: Inhibition of human N- terminal His6 tagged human INMT expressed in Escherichia coli BL21-CodonPlus(DE3)-RIL using tryptamine as substrate preincubated for 10 mins in presence of AdoMet followed by substrate addition by fluorescence based SAHH enzyme coupled assay.
For experiment [5], the target named is T3, Histone-lysine N-methyltransferase EHMT2 (Homo sapiens, UniProt Q96KQ7).
T3 sequence (Q96KQ7 whole entry): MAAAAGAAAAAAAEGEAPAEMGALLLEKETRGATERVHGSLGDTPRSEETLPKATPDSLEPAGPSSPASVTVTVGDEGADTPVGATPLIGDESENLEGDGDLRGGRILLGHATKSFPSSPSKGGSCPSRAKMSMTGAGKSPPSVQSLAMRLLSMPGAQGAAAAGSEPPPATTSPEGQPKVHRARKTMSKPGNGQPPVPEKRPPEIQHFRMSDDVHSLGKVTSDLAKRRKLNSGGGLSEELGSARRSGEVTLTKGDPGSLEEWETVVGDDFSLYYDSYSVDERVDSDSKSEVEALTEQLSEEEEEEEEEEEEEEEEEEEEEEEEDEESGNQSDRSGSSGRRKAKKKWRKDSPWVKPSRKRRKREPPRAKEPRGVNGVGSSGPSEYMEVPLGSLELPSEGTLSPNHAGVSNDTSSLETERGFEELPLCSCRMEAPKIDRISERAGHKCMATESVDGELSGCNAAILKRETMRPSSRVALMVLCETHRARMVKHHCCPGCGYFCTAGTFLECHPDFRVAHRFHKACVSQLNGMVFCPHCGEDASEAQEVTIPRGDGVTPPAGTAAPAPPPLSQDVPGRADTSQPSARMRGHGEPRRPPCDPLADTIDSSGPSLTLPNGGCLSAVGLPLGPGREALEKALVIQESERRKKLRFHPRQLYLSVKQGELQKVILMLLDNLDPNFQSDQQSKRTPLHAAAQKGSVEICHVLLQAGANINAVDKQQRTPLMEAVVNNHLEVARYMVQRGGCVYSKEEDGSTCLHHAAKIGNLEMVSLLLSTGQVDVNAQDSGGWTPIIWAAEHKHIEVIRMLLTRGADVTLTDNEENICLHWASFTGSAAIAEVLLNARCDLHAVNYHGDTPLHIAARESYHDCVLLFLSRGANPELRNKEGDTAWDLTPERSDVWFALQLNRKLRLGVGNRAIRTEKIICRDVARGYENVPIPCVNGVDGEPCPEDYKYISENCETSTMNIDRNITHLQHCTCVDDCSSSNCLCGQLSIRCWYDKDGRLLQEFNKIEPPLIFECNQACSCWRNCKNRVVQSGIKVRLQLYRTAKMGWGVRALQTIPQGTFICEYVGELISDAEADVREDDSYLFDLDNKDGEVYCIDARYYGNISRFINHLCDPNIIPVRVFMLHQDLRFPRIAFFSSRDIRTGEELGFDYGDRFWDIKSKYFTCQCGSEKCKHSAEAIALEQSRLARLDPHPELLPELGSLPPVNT
In words: Inhibition of recombinant human G9a (913 to 1193 residues) expressed in Escherichia coli BL21-CodonPlus(DE3)-RIL using H3-21 peptide preincubated for 10 mins in presence of AdoMet followed by substrate addition by fluorescence based SAHH enzyme coupled assay.

Experiment [6] concerns the target T4, Phenylethanolamine N-methyltransferase (Homo sapiens, UniProt P11086).
T4 sequence (P11086 whole entry): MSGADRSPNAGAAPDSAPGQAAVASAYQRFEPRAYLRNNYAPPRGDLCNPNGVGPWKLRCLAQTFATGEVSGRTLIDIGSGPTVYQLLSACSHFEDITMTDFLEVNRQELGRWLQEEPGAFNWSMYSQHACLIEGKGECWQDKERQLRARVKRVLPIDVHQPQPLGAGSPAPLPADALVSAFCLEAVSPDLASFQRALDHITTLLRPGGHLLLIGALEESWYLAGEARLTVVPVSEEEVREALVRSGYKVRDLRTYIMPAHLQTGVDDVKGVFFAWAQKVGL
In words: Inhibition of human N-terminal His6 tagged PNMT using norepinephrine as substrate preincubated for 10 mins in presence of AdoMet followed by substrate addition by fluorescence based SAHH enzyme coupled assay.

A short description of experiment [7]: Inhibition of Trypanosoma brucei PRMT7 expressed in Escherichia coli preincubated for 10 mins in presence of AdoMet followed by susbtrate addition by fluorescence based SAHH enzyme coupled assay.
Experiment [8] deals with T5, Histone-lysine N-methyltransferase SETD7 (Homo sapiens, UniProt Q8WTS6).
T5 sequence (Q8WTS6 whole entry): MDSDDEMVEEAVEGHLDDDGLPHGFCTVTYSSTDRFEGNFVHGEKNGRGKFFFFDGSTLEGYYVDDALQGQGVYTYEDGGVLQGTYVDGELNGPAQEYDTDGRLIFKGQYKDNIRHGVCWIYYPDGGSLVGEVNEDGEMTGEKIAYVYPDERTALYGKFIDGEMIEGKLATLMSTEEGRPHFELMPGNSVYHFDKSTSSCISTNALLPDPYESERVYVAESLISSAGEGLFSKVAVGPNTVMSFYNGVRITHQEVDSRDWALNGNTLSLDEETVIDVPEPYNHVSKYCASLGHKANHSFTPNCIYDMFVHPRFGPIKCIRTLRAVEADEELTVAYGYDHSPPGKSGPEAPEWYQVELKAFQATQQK
In words: Inhibition of recombinant human His-tagged SETD7 (1 to 366 residues) expressed in Escherichia coli using H3-21 peptide as susbtrate preincubated for 10 mins in presence of AdoMet followed by substrate addition by fluorescence based SAHH enzyme coupled assay.

In experiment [9] the target is Adenosylhomocysteinase (Homo sapiens, UniProt P23526). The experiment in a line: Inhibition of SAHH (unknown origin) using SAH as substrate preincubated for 10 mins followed by susbtrate addition by fluorescence based assay.

Each structure is given as a SMILES string.

For orientation: Ki means the equilibrium dissociation constant of an inhibitor or competing ligand from its target. As a reminder, the IC50 is the concentration that gives 50% inhibition.

Chain of Indolethylamine N-methyltransferase (O95050 whole entry): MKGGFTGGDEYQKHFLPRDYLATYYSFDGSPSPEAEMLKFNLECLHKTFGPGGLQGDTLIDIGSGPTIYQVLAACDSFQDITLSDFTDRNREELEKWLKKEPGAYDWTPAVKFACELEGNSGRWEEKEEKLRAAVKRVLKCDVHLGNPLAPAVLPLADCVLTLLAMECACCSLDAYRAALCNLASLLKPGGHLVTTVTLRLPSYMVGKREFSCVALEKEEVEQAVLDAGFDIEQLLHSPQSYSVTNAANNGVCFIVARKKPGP
Chain of Protein arginine N-methyltransferase 1 (Q63009 whole entry): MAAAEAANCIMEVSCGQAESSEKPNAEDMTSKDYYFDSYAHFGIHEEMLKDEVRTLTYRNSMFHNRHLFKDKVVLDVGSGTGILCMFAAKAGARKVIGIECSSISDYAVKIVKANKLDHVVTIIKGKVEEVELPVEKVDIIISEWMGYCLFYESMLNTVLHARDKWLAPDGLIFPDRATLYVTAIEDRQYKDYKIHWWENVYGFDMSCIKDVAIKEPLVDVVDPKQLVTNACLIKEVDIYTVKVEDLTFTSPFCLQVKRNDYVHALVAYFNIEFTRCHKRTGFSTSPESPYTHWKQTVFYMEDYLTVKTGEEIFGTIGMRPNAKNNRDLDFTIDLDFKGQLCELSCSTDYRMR
Chain of Adenosylhomocysteinase (P23526 whole entry): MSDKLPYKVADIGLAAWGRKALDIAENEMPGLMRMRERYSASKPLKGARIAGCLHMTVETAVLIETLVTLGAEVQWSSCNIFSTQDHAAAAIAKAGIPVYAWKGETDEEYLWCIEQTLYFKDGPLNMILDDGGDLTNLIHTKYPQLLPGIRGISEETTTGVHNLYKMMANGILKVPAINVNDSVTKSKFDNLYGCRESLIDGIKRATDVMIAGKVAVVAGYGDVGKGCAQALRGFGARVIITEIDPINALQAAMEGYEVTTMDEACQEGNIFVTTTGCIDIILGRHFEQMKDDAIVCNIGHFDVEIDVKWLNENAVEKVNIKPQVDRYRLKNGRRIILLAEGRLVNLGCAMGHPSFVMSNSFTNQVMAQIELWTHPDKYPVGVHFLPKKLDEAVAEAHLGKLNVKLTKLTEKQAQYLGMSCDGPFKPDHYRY

In experiment [1], `COc1ccc(C(N)=O)cc1C#CCN(CC[C@H](N)C(=O)O)C[C@H]1O[C@@H](n2cnc3c(N)ncnc32)[C@H](O)[C@@H]1O` registered a Ki of 0.052 µM.
Same read-out and setting: with `NC(=O)c1cccc(CCCN(CCC[C@H](N)C(=O)O)C[C@H]2O[C@@H](n3cnc4c(N)ncnc43)[C@H](O)[C@@H]2O)c1` the figure was 3 µM.
Same read-out and setting: with `Nc1ncnc2c1ncn2[C@@H]1O[C@H](CN(CCCc2ccc3ccccc3c2)CC[C@H](N)C(=O)O)[C@@H](O)[C@H]1O` the figure was 4 µM.
Still for that read-out and setting: the result for `Nc1ncnc2c1ncn2[C@@H]1O[C@H](CN(CCCc2ccc3ccccc3c2)CCC[C@H](N)C(=O)O)[C@@H](O)[C@H]1O` reads 33.3 µM; that for `Cc1ccc(C#CCN(CC[C@H](N)C(=O)O)C[C@H]2O[C@@H](n3cnc4c(N)ncnc43)[C@H](O)[C@@H]2O)cc1C(N)=O`, 0.016 µM.
`COC(=O)c1cccc(CCCN(CC[C@H](N)C(=O)O)C[C@H]2O[C@@H](n3cnc4c(N)ncnc43)[C@H](O)[C@@H]2O)c1`: the inhibitory constant (Ki) in [1] is 28 µM.
The same measure, in the same setting: with `NC(=O)c1cccc(CCCCN(CCC[C@H](N)C(=O)O)C[C@H]2O[C@@H](n3cnc4c(N)ncnc43)[C@H](O)[C@@H]2O)c1` the figure was 0.54 µM.
On to `Cc1ccc(C(N)=O)cc1CCCN(CC[C@H](N)C(=O)O)C[C@H]1O[C@@H](n2cnc3c(N)ncnc32)[C@H](O)[C@@H]1O`, for which the Ki in [1] is 0.15 µM.
`Nc1ncnc2c1ncn2[C@@H]1O[C@H](CN(CCCc2cccc3ccccc23)CCC[C@H](N)C(=O)O)[C@@H](O)[C@H]1O` gave a Ki in [1] of 1.1 µM.
On the same count and under the same terms, the result for `NC(=O)c1cccc(CCCCN(CC[C@H](N)C(=O)O)C[C@H]2O[C@@H](n3cnc4c(N)ncnc43)[C@H](O)[C@@H]2O)c1` reads 0.84 µM; that for `Nc1ncnc2c1ncn2[C@@H]1O[C@H](CN(CCCc2cccc3ccccc23)CC[C@H](N)C(=O)O)[C@@H](O)[C@H]1O`, 11.8 µM.
The same measure, in the same setting: the result for `NC(=O)c1cccc(CCN(CC[C@H](N)C(=O)O)C[C@H]2O[C@@H](n3cnc4c(N)ncnc43)[C@H](O)[C@@H]2O)c1` reads 10 µM.
As for `NC(=O)c1cccc(C#CCN(CC[C@H](N)C(=O)O)C[C@H]2O[C@@H](n3cnc4c(N)ncnc43)[C@H](O)[C@@H]2O)c1`, the IC50 is greater than 100 µM in experiment [2]; greater than 33 µM in experiment [3]; greater than 100 µM in experiment [4]; greater than 100 µM in experiment [5]; greater than 100 µM in experiment [6]; greater than 33 µM in experiment [7]. The half-inhibitory concentration (IC50) in experiment [8] was greater than 100 µM; in experiment [9], greater than 3.7 µM.
Consider `NC(=O)c1cccc(C#CCNC[C@H]2O[C@@H](n3cnc4c(N)ncnc43)[C@H](O)[C@@H]2O)c1`, for which, in experiment [1], the affinity corresponds to a Ki of 3 µM.
Still for that read-out and setting: the result for `Cc1ccc(CCCN(CC[C@H](N)C(=O)O)C[C@H]2O[C@@H](n3cnc4c(N)ncnc43)[C@H](O)[C@@H]2O)cc1C(N)=O` reads 0.051 µM; that for `Nc1ncnc2c1ncn2[C@@H]1O[C@H](CN(CCc2ccc3ccccc3c2)CC[C@H](N)C(=O)O)[C@@H](O)[C@H]1O`, 27.3 µM; that for `NC(=O)c1cccc(CCCN(CC[C@H](N)C(=O)O)C[C@H]2O[C@@H](n3cnc4c(N)ncnc43)[C@H](O)[C@@H]2O)c1`, 0.043 µM.
In [1], `NC(=O)c1ccccc1` [BENZAMIDE] returned an inhibition constant (Ki) greater than 100 µM.

Source of the values: ChEMBL document CHEMBL4321848 (J Med Chem, 2019).
